Assay results published in the supplement of paper PMC5908809.

Assays:
[1] = system: NK-YS (IL-2 2.5 ng/mL); assay: drug sensitivity score (DSS) (DSS units); higher = more sensitive; extreme values may be limits of the assay; details: 72 h
[2] = system: SNK-6 (IL-2 2.5 ng/mL); assay: as above; details: 72 h
[3] = system: NK-92 (IL-2 2.5 ng/mL); assay: as above; details: 72 h
[4] = system: NKL (IL-2 2.5 ng/mL); assay: as above; details: 72 h
[5] = system: DERL-7 (IL-2 2.5 ng/mL); assay: as above; details: 72 h
[6] = system: IMC-1 (IL-2 20 ng/mL); assay: as above; details: 72 h
[7] = system: normal primary NK cells, pool 3 (3 donors) (IL-2 2.5 ng/mL); assay: as above; details: 72 h
[8] = system: KAI3 (IL-2 2.5 ng/mL); assay: as above; details: 72 h
[9] = system: normal primary NK cells, pool 1 (3 donors), resting (IL-2 0 ng/mL); assay: as above; details: 72 h
[10] = system: normal primary NK cells, pool 2 (3 donors) (IL-2 2.5 ng/mL); assay: as above; details: 72 h
[11] = system: normal primary NK cells, pool 1 (3 donors) (IL-2 2.5 ng/mL); assay: as above; details: 72 h
[12] = system: KHYG-1 (IL-2 2.5 ng/mL); assay: as above; details: 72 h
[13] = system: YT (IL-2 2.5 ng/mL); assay: as above; details: 72 h
[14] = system: normal NK cells expanded with K562-aAPC; assay: as above; details: 72 h; IL-2 2.5 ng/mL
Experimental: (§1)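 Drug sensitivity and resistance testing on K562-aAPC-expanded normal NK cells: 5 concentrations (10-fold steps over a 10,000-fold range), 72 h at 37 °C, viability by CellTiter-Glo normalised to DMSO and benzethonium chloride controls; DSS from the fitted curve.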

[15] = system: normal NK cells expanded with K562-aAPC; assay: percent inhibition of viability; higher = more inhibition; details: 72 h, IL-2 2.5 ng/mL
Experimental: as §1

[16] = system: NK-YS (IL-2 2.5 ng/mL); assay: as above; details: 72 h
[17] = system: SNK-6 (IL-2 2.5 ng/mL); assay: as above; details: 72 h
[18] = system: NK-92 (IL-2 2.5 ng/mL); assay: as above; details: 72 h
[19] = system: NKL (IL-2 2.5 ng/mL); assay: as above; details: 72 h
[20] = system: DERL-7 (IL-2 2.5 ng/mL); assay: as above; details: 72 h
[21] = system: IMC-1 (IL-2 20 ng/mL); assay: as above; details: 72 h
[22] = system: normal primary NK cells, pool 3 (3 donors) (IL-2 2.5 ng/mL); assay: as above; details: 72 h
[23] = system: KAI3 (IL-2 2.5 ng/mL); assay: as above; details: 72 h
[24] = system: normal primary NK cells, pool 1 (3 donors), resting (IL-2 0 ng/mL); assay: as above; details: 72 h
[25] = system: normal primary NK cells, pool 2 (3 donors) (IL-2 2.5 ng/mL); assay: as above; details: 72 h
[26] = system: normal primary NK cells, pool 1 (3 donors) (IL-2 2.5 ng/mL); assay: as above; details: 72 h
[27] = system: KHYG-1 (IL-2 2.5 ng/mL); assay: as above; details: 72 h
[28] = system: YT (IL-2 2.5 ng/mL); assay: as above; details: 72 h

O=C(Nc1ccc2[nH]nc(-c3ccncc3)c2c1)[C@@H]1CCN(CC(=O)N2CCN(c3ccc(-c4ncccn4)cc3)CC2)C1 (max concentration tested 10000 nM)
Details	drug sensitivity score
[1]	3.58
[2]	0.08
[3]	0.01
[4]	10.9
[5]	10.3
[6]	0
[7]	0.32
[8]	5.52
[9]	5.24
[10]	0.76
[11]	4.28
[12]	9.89
[13]	1.87
[14]	1.01

percent inhibition of viability [%]
Details	1 nM	10 nM	100 nM	1000 nM	10000 nM
[15]	2.7	-4.22	-5.95	2.93	20.3
[16]	-4.51	-0.3	-0.1	9.9	40.6
[17]	-4.99	4.31	5.1	-34.4	15.8
[18]	-6.06	-9.07	-16.6	-32.5	12.5
[19]	-19.4	-14.6	3.59	55.7	71.8
[20]	-1.39	5.53	18	42.9	66.6
[21]	-5.11	-10.7	-8.77	-10.1	-4.64
[22]	-13.2	-18.2	-22.8	-10.8	20
[23]	-4.48	5.51	14.6	21	46.9
[24]	4.46	-7.38	-1.31	12.8	58.7
[25]	-6.14	-5.45	0.32	5.74	15.6
[26]	-5.21	-6.91	-5.12	11.2	47.8
[27]	-2.48	-2.2	5.59	45.6	78.9
[28]	-0.05	-0.51	-3.3	9.81	22.2

O=C1NC(=O)/C(=C/c2ccc3nccc(-c4ccncc4)c3c2)S1 (max concentration tested 10000 nM)
Details	drug sensitivity score
[1]	9.16
[2]	7.19
[3]	6.85
[4]	10.6
[5]	12.7
[6]	1.19
[7]	6.25
[8]	7.69
[9]	14.1
[10]	8.23
[11]	6.93
[12]	10.3
[13]	12.1
[14]	7.25

percent inhibition of viability [%]
Details	1 nM	10 nM	100 nM	1000 nM	10000 nM
[15]	-7.65	-6.22	-2.48	25.2	68.2
[16]	-5.37	-5.14	5.36	42.1	74.2
[17]	7.06	2.93	5.43	30.6	67.5
[18]	-4.72	-6.37	-0.26	24.6	63.5
[19]	-16.6	-12.9	3.48	52.1	76.4
[20]	-4.4	4.35	9.03	60.2	88.2
[21]	-1.41	-1.05	0.35	-13.3	36.1
[22]	-4.27	3.99	9.93	15.9	69.4
[23]	4.6	-4.46	10.8	33.3	66
[24]	7.14	23.7	24.7	33.3	68.1
[25]	-5.69	2.64	12.6	32.4	82.4
[26]	-6.7	13.9	10.7	28.1	58.9
[27]	-3.03	-2.9	7.97	47.8	78.5
[28]	-1.99	-2.62	7.22	58.7	82.4

CN(C)C(=O)c1cc2cnc(Nc3ccc(N4CCNCC4)cn3)nc2n1C1CCCC1 [NVP-LEE011] (max concentration tested 10000 nM)
Details	drug sensitivity score
[1]	4.9
[2]	1.78
[3]	2.18
[4]	2.07
[5]	3.81
[8]	2
[9]	6.2
[11]	3.77
[12]	9.33
[13]	3.67

percent inhibition of viability [%]
Details	[16]	[17]	[18]	[19]	[20]	[23]	[24]	[26]	[27]	[28]
1 nM	-2.35	-8.9	-9.54	-12.3	-3.18	-3.87	7.64	4.32	-4.23	-3.41
10 nM	-0.02	3.64	-16.1	-11.2	4.13	1.07	12.1	8.46	0.91	-2.71
100 nM	5.18	-2.64	-4.22	-15	1.76	-4.85	17.7	8.7	-1.06	-0.92
1000 nM	22.1	12.5	15.8	-6.48	11.2	4.66	14.8	6.05	37.5	9.6
10000 nM	48	19.8	20.8	47.9	41.6	29.2	51.6	51.8	81.3	42.3

Oc1ncc(N(CCCl)CCCl)c(O)n1 [Uracil mustard] (max concentration tested 10000 nM)
Details	drug sensitivity score
[1]	1.03
[2]	0
[3]	1.65
[4]	0.45
[5]	0
[8]	1.5
[9]	1.83
[11]	0
[12]	0
[13]	0

percent inhibition of viability [%]
Details	[16]	[17]	[18]	[19]	[20]	[23]	[24]	[26]	[27]	[28]
1 nM	-4.38	-5.93	-13	-13	-3.55	-2.41	1.93	1.1	-4.85	-3.44
10 nM	-2.31	-12.3	2.85	-8.44	-2.92	-4.28	12.8	14.8	-7.99	-2.84
100 nM	-0.87	-16.6	-5.3	1.52	0.29	4.07	14.2	6.41	-5.32	-1.58
1000 nM	8.35	-20.1	11.1	7.38	1.68	10.1	7.77	7.51	0.5	6.78
10000 nM	16.4	-11.1	19.6	14.1	-8.73	23.1	16.2	12.4	6.88	8.3

CC1(C)CCC(CN2CCN(c3ccc(C(=O)NS(=O)(=O)c4ccc(NCC5CCOCC5)c([N+](=O)[O-])c4)c(Oc4cnc5[nH]ccc5c4)c3)CC2)=C(c2ccc(Cl)cc2)C1 [Venetoclax] (max concentration tested 10000 nM)
Details	drug sensitivity score
[1]	7.95
[2]	26.1
[3]	5.65
[4]	18.4
[5]	16.2
[8]	33.6
[9]	34.5
[11]	8.04
[12]	8.64
[13]	14.1

percent inhibition of viability [%]
Details	[16]	[17]	[18]	[19]	[20]	[23]	[24]	[26]	[27]	[28]
1 nM	4.6	10.4	-4.75	5.96	1.21	27.7	-13.2	-1.92	-4.77	3.82
10 nM	3.22	48.6	2.95	19.3	17	55.8	53.6	-1.34	-0.91	7.84
100 nM	6.71	50.4	18.2	45.6	36.3	71	87.3	4.44	1.35	10.9
1000 nM	25.8	74.7	17	55.5	54.6	91.3	91.6	36.7	29.1	67.4
10000 nM	82.6	96.6	66.6	85.8	87.8	98.7	91.2	67.1	82.5	88.4
